{"source": "patent US7265259B2", "about": "“GSK-3β expressed in a transgenic mouse” (Consejo Superior de Investigaciones Clentificas, priority 2000, dated 2007)", "test_system": "Tet/GSK-3β mice", "test": "Genotype frequency of double transgenic mice after prenatal doxycycline treatment (perinatal lethality)", "format": "in vivo, mouse", "details": "14% without treatment, 25% expected", "from_the_text": "Tet/GSK-3B mice were viable and fertile and appeared normal without pharmacological intervention to suppress transgene expression. This seemed to contradict the previously postulated toxicity of increased GSK-3β expression in brain (Brownlees et al., 1997). […] The Tet/GSK-3β mice were underrepresented (14%, n=401). This might be indicative of lethality due to embryonic overexpression of GSK-3β in Tet/GSK-3β mice.\nWe had previously observed perinatal transgene expression and lethality in our CamKIIα-tTA driven animal model of Huntington's disease (HD94) (Yamamoto et al., 2000). In the case of HD94 mice, if pregnant mice are given the tetracycline analog doxycycline (2 mg/ml) in the drinking water ad libitum from E15 to birth, only postnatal transgenic expression takes place and the frequency of the four expected genotypes is restored to 25%. We thus decided to apply the same program of perinatal doxycycline treatment to the Tet/GSK-3B mice. […] As expected, prenatal doxycycline treatment normalized to 25% the frequency of Tet/GSK-3β mice and thus, to maximize yield of double transgenic mice in litters, the perinatal doxycycline treatment was routinely employed.", "data": [{"molecule": "C[C@H]1c2cccc(O)c2C(=O)C2=C(O)[C@]3(O)C(=O)C(C(N)=O)=C(O)[C@@H](N(C)C)[C@@H]3[C@@H](O)[C@@H]21", "note": "[doxycycline]", "values": [{"measurement": "frequency of Tet/GSK-3β mice", "result": 25, "unit": "%"}]}]}
